# Tested on: HO-1 and NQO-1 mRNA
# Assay: Q-PCR of anti-oxidant genes in HNDFs
# Type: cell-based, human
# Details: ANM 10 μM, 12 h
# Procedure: Total RNA was extracted from cultured HNDFs using Trizol Reagent (Thermo Fisher Scientific). Q-PCR analysis was performed using Applied Biosystems detection instruments and software. Forward and reverse primers (10 μM), and the working solution SYBR green, was used as a PCR master mix, under the following conditions: 96°C for 3 minutes followed by 40 cycles at 96°C for 1 minute, 50°C for 30 seconds and 72°C for 90 seconds. GAPDH was used as an internal standard to control for variability in amplification because of differences in starting mRNA concentrations. The copy number of each transcript was calculated as the relative copy number normalized by GAPDH copy number.
smiles,measurement,value
"C=C(CCC(C)C1CCC2C3=C(C(=O)C(O)C21C)C1(C)CCC(O)C(C)C1CC3)C(C)C(=O)O (stereo not shown) [ANM, antcin M]",mRNA levels of HO-1 and NQO-1,significantly increased
